In patent US11578055B2, “Triazacyclododecansulfonamide (“TCD”)-based protein secretion inhibitors” (KEZAR LIFE SCIENCES, priority 2018, dated 2023):
Like-named read-outs stand apart in the source and are kept apart here.

What was measured:
[1] = In Vitro Microsome Stability Assay (human); format: in vitro ADME
In short: (§1)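 Test article, added from a 0.25 mM DMSO stock, was incubated with liver microsomes (20 mg/mL stock) in 0.1 M potassium phosphate at 37° C, with the reaction started by NADPH. Samples were quenched with acetonitrile containing internal standard at 0 and 30 min and analysed by LC-MS/MS. Values are % remaining at 30 min versus 0 min, using IS-normalised AUC ratios.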

[2] = In Vitro Microsome Stability Assay (monkey); format: in vitro ADME
In short: as §1

[3] = test system: multiple myeloma cell line U266B1; test: U266 Cell Viability Assay; format: cell-based, human; conditions: Homo sapiens, U-266, 48 hr
In short: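 U266B1 myeloma cells in RPMI 1640 with 10% FBS were treated with compound dilutions for 48 h at 37° C, 5% CO2. Viability was read as CellTiter-Glo luminescence. Data for structures drawn without stereochemistry refer to stereoisomer mixtures.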

[4] = test system: full length IL-2 (amino acids 1-153) fused to Gaussia Luciferase; test: Dox Induced IL2-FL-Gluc Assay; format: cell-based; conditions: 24 hr, read-out: 24 hr Dox Inducible IL2FLGluc 293FRT/TO: Mean IC50
In short: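 Flp-In 293 T-REx stable line expressing full-length IL-2 (aa 1-153) with C-terminal Gaussia luciferase fusion under doxycycline-inducible control. Cells plated the day before; compound dilutions added in DMSO/media containing doxycycline, incubated at 37° C, 5% CO2.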

[5] = In Vitro Microsome Stability Assay (rat); format: in vitro ADME
In short: as §1

[6] = test system: multiple myeloma cell line NCl-H929; test: H929 Cell Viability Assay; format: cell-based, human; conditions: Homo sapiens, NCI-H929, 48 h
In short: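 NCI-H929 myeloma cells in RPMI 1640 with 10% FBS were treated with compound dilutions for 48 h at 37 °C, and viability was then read by CellTiter-Glo luminescence. Compounds drawn without stereochemistry were tested as stereoisomer mixtures.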

[7] = test system: PD1 signal sequence plus 10 amino acids fused to Gaussia Luciferase (PD1-ss+10aa/Gaussia Luciferase); test: Dox Induced PD1-ss-Gluc Assay; format: cell-based; conditions: 24 hr, read-out: 24 hr Dox Inducible PD1ssGluc 293FRT/TO: Mean IC50
In short: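 Stable Flp-In 293 T-REx line expressing the fusion under tetracycline-inducible control, plated the day before assay. Compound dilutions added with doxycycline and incubated at 37 °C, 5% CO2; unspecified stereocentres mean data refer to stereoisomer mixtures.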

[8] = test system: full length TNFα (amino acids 1-233) fused to Gaussia Luciferase; test: Dox Induced TNFα-FL-Gluc Assay; format: cell-based; conditions: 24 hr, read-out: 24 hr Dox Inducible TNFaFLGluc 293FRT/TO: Mean IC50
In short: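 Stable Flp-In 293 T-REx line expressing doxycycline-inducible full-length TNFα fused to Gaussia luciferase; cells plated the day before, then treated with compound dilutions in doxycycline-containing medium at 37° C, 5% CO2. Unspecified stereocentres mean stereoisomer mixtures were tested.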

[9] = In Vitro Microsome Stability Assay (mouse); format: in vitro ADME
In short: as §1

[10] = human liver microsomes, 30 min w/ NADPH
[11] = monkey liver microsomes, 30 min w/ NADPH
[12] = rat liver microsomes, 30 min w/ NADPH
[13] = mouse liver microsomes, 30 min w/ NADPH

Row | SMILES | Liver Microsome Stability-% Left after 30 min w/ NADPH (%) Human [1, 10] | Liver Microsome Stability-% Left after 30 min w/ NADPH (%) Monkey [2, 11] | EC50 ([3]; U266, Celltiter-Glo) | IC50 ([4]; Dox inducible, 293FRT/TO cells) | Liver Microsome Stability-% Left after 30 min w/ NADPH (%) Rat [5, 12] | EC50 ([6]; H929, Celltiter-Glo) | IC50 ([7]; Dox inducible, 293FRT/TO cells) | IC50 ([8]; Dox inducible, 293FRT/TO cells) | Liver Microsome Stability-% Left after 30 min w/ NADPH (%) Mouse [9, 13] | Liver Microsome Stability-% Left after 30 min w/ NADPH (%) Human ([1]; human, 30 min, NADPH) | Liver Microsome Stability-% Left after 30 min w/ NADPH (%) Monkey ([2]; monkey, 30 min, NADPH) | EC50 ([3]; U266, read-out: 48 hr U266 Viability Celltiter-Glo: Mean EC50) | IC50 ([4]; 293FRT/TO) | Liver Microsome Stability-% Left after 30 min w/ NADPH (%) Rat ([5]; rat, 30 min, NADPH) | EC50 ([6]; H929, read-out: 48 hr H929 Viability Celltiter-Glo: Mean EC50) | IC50 ([7]; 293FRT/TO) | IC50 ([8]; 293FRT/TO) | Liver Microsome Stability-% Left after 30 min w/ NADPH (%) Mouse ([9]; mouse, 30 min, NADPH)
1 | COCCN1CCCN(S(=O)(=O)c2ccc(N(C)C)cc2)C[C@H](C)CN(S(=O)(=O)N2CCc3cc(Cl)ccc3C2)CCC1 [A140, 4-{[(3S)-5-[(6-chloro-1,2,3,4-tetrahydroisoquinolin-2-yl)sulfonyl]-9-(2-methoxyethyl)-3-methyl-1,5,9-triazacyclododecan-1-yl]sulfonyl}-N,N-dimethylaniline] | 0.41% | 1.56% | > 25000 nM | 808 nM | 0.56% | > 25000 nM | 492 nM | 3010 nM | 3.68% |  |  |  |  |  |  |  |  | 
2 | Cc1cccc2c1CCN(S(=O)(=O)N1CCCN(CC3CCCCC3)CCCN(S(=O)(=O)c3ccc(N(C)C)cc3)C[C@H](C)C1)C2 [A166, 4-{[(3S)-9-(cyclohexylmethyl)-3-methyl-5-[(5-methyl-1,2,3,4-tetrahydroisoquinolin-2-yl)sulfonyl]-1,5,9-triazacyclododecan-1-yl]sulfonyl}-N,N-dimethylaniline] | 14.0% | 18.7% | > 25000 nM | 30.2 nM | 31.3% | 548 nM | 16.7 nM | 278 nM | 26.4% |  |  |  |  |  |  |  |  | 
3 | Cc1cccc(N2CCN(S(=O)(=O)N3CCCN(CC4CCCCC4)CCCN(S(=O)(=O)c4ccc(N(C)C)cc4)C[C@H](C)C3)CC2)c1 [A98, 4-{[(3S)-9-(cyclohexylmethyl)-3-methyl-5-{[4-(3-methylphenyl)piperazin-1-yl]sulfonyl}-1,5,9-triazacyclododecan-1-yl]sulfonyl}-N,N-dimethylaniline] |  |  |  |  |  |  |  |  |  | 57.5% | 26.9% | > 25000 nM | 351 nM | 32.8% | > 25000 nM | 202 nM | 7340 nM | 55.2%
4 | Cc1cc(F)ccc1N1CCN(S(=O)(=O)N2CCCN(CC3CCCCC3)CCCN(S(=O)(=O)c3ccc(N(C)C)cc3)C[C@H](C)C2)CC1 [A102, 4-{[(3S)-9-(cyclohexylmethyl)-5-{[4-(4-fluoro-2-methylphenyl)piperazin-1-yl]sulfonyl}-3-methyl-1,5,9-triazacyclododecan-1-yl]sulfonyl}-N,N-dimethylaniline] | 62.3% | 70% | > 25000 nM | 90.5 nM | 101.9% | 558 nM | 33.4 nM | 477 nM | 86.6% |  |  |  |  |  |  |  |  | 
5 | C[C@H]1CN(S(=O)(=O)c2ccc(N(C)C)cc2)CCCN(C(=O)OCc2ccccc2)CCCN(S(=O)(=O)N2CCc3cc(Cl)ccc3C2)C1 [A103] | 31.6% | 38.5% | > 25000 nM | 698 nM | 36.5% | > 25000 nM | 446 nM | > 25000 nM | 42.2% |  |  |  |  |  |  |  |  | 
6 | C[C@H]1CN(S(=O)(=O)c2ccc(N(C)C)cc2)CCCN(CC2CCCC2)CCCN(S(=O)(=O)N2CCc3cc(Cl)ccc3C2)C1 [A157, 4-{[(3S)-5-[(6-chloro-1,2,3,4-tetrahydroisoquinolin-2-yl)sulfonyl]-9-(cyclopentylmethyl)-3-methyl-1,5,9-triazacyclododecan-1-yl]sulfonyl}-N,N-dimethylaniline] | 21.1% | 27.3% | > 25000 nM | 77.4 nM | 32.2% | 858 nM | 23.3 nM | 584 nM | 23.3% |  |  |  |  |  |  |  |  | 
7 | C[C@H]1CN(S(=O)(=O)c2ccc(N(C)C)cc2)CCCN(CC2CCC2)CCCN(S(=O)(=O)N2CCc3cc(Cl)ccc3C2)C1 [A108, 4-{[(3S)-5-[(6-chloro-1,2,3,4-tetrahydroisoquinolin-2-yl)sulfonyl]-9-(cyclobutylmethyl)-3-methyl-1,5,9-triazacyclododecan-1-yl]sulfonyl}-N,N-dimethylaniline] | 1.06% | 0.88% | > 25000 nM | 68.3 nM | 2.05% | 421 nM | 29.6 nM | 546 nM | 0.62% |  |  |  |  |  |  |  |  | 
8 | C[C@H]1CN(S(=O)(=O)c2ccc(N(C)C)cc2)CCCN(CC2CCCCC2)CCCN(S(=O)(=O)N2CCN(C(=O)OC(C)(C)C)CC2)C1 [A153, tert-butyl 4-{[(3S)-9-(cyclohexylmethyl)-5-[4-(dimethylamino)benzenesulfonyl]-3-methyl-1,5,9-triazacyclododecan-1-yl]sulfonyl}piperazine-1-carboxylate] | 2.57% | 1.26% | > 25000 nM | 1260 nM | 6.23% | > 25000 nM | 1290 nM | > 25000 nM | 0.87% |  |  |  |  |  |  |  |  | 
9 | COc1cccc2c1CCN(S(=O)(=O)N1CCCN(CC3CCCCC3)CCCN(S(=O)(=O)c3ccc(N(C)C)cc3)C[C@H](C)C1)C2 [A138, 4-{[(3S)-9-(cyclohexylmethyl)-5-[(5-methoxy-1,2,3,4-tetrahydroisoquinolin-2-yl)sulfonyl]-3-methyl-1,5,9-triazacyclododecan-1-yl]sulfonyl}-N,N-dimethylaniline] | 8.84% | 12.5% | > 25000 nM | 156 nM | 17.1% | 2400 nM | 73.9 nM | 947 nM | 13.2% |  |  |  |  |  |  |  |  | 
